The nature of data set [1]: Pharmacokinetics and renal excretion in healthy subjects, single 1000 mg IV. The class given is in vivo, human. Particulars: for t1/2: healthy subjects, single 1000 mg IV. On the procedure:
Blood samples were drawn into heparinized tubes and centrifuged. Plasma was separated and stored frozen at −20° C. until time of assay. Plasma and urine samples were assayed for dalbavancin using validated LC/MS/MS methods. […] The peak concentration (Cmax) values were obtained directly from the observed data. The area under the plasma concentration-time curve (AUC) was calculated using the linear trapezoidal rule. Clearance (CL) was computed as dose/AUC. The elimination half life (t1/2) was estimated by linear regression of the log-linear portion of the log concentration versus time curve. Estimates of the volume of distribution (VZ) was calculated using the regression parameters, while the volume of distribution at steady state (VSS) was calculated from the area under the first moment curve (AUMC) multiplied by the dose and divided by AUC. The cumulative amount of dalbavancin excreted in urine was determined as the integrand of the urine excretion rate (AURC). CLR, or renal clearance, was calculated as the ratio: CLR=AURC/AUC.

Data set [2] deals with B subtilis. Nature of the data set: MIC, microbiological activity (Table 3). Particulars: L 102 B subtilis ATCC; read-out: MIC. The class given is cell-based.
The test system of data set [3] is S aureus. Kind of data set: MIC, microbiological activity (Tables 2, 3). The class given is cell-based.

SMILES strings stand for the structures. ≈ marks a conversion by molar mass, not a printed value. Read-outs that look alike come from different tables or passages of the source.

The term MIC denotes the lowest concentration that inhibits growth of the organism. For the molecule `CN[C@H]1C(=O)N[C@@H]2Cc3ccc(cc3)Oc3cc4cc(c3O[C@@H]3O[C@H](C(=O)O)[C@@H](O)[C@H](O)[C@H]3NC(=O)CCCCCCCCC(C)C)Oc3ccc(cc3Cl)[C@@H](O)[C@@H]3NC(=O)[C@H](NC(=O)[C@@H]4NC(=O)[C@@H](NC2=O)c2cc(cc(O)c2Cl)Oc2cc1ccc2O)c1ccc(O)c(c1)-c1c(O[C@H]2O[C@H](CO)[C@@H](O)[C@H](O)[C@@H]2O)cc(O)cc1[C@@H](C(=O)NCCCN(C)C)NC3=O` [Dalbavancin], the t1/2 is 11.8 days in data set [1] (Max) and 9.46 days in data set [1] (Min). The peak concentration in data set [1] (both, human, in vivo) is around 165 µM. The MIC in data set [2] was below 0.03 µg/mL; in data set [3] (3817 S aureus clin. Isolate, read-out: MIC), below 0.03 µg/mL; in data set [3] (L 819 S aureus Smith 50% serum), 2 µg/mL (≈ 1.1 µM); in data set [3] (L 819 S aureus Smith 50% serum, read-out: MIC), 1 µg/mL (≈ 0.55 µM); in data set [3] (Staphylococcus aureus, MSSA, MSSA Staph. aureus Smith 819, read-out: MIC), 0.06 µg/mL (≈ 0.033 µM).

Source of the values: patent US8143212B2 (Vicuron Pharmaceuticals Inc., priority 2002, dated 2012).
